Data: patent US20110039857A1, “PIPERIDINE AND PYROOLIDINE COMPOUNDS” (priority 2008, published 2011)

Key:
human orexin-1 receptor = target: T1, human orexin-1 receptor (Homo sapiens, UniProt O43613); assay: Intracellular calcium measurements (FLIPR), orexin receptor antagonistic activity; format: cell-based; conditions: CHO cells expressing human orexin-1 receptor; agonist 3 nM orexin-A; read-out: OX1 IC50
T1 construct: expressed in transfected cells; host or cells: CHO (Chinese hamster ovary) cells under G418 selection
T1 sequence (O43613 1-425): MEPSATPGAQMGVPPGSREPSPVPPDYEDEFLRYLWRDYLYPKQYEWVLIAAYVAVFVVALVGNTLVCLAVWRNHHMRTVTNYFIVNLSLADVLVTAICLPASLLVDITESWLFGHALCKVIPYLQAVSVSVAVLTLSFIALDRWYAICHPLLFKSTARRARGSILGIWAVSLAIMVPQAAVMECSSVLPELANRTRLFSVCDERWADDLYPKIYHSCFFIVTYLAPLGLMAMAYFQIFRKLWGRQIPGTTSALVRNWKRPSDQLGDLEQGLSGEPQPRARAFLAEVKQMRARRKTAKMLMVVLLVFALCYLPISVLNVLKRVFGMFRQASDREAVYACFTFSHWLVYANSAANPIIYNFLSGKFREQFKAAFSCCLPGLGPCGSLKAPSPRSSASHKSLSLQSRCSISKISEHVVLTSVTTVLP
Description: (§1) The orexin receptor antagonistic activity of the compounds of formula (I) is determined in accordance with the following experimental method.
(§2) Intracellular Calcium Measurements:
(§3) Chinese hamster ovary (CHO) cells expressing the human orexin-1 receptor and the human orexin-2 receptor, respectively, are grown in culture medium (Ham F-12 with L-Glutamine) containing 300 μg/ml G418, 100 U/ml penicillin, 100 μg/ml streptomycin and 10% heat inactivated fetal calf serum (FCS). The cells are seeded at 20′000 cells/well into 384-well black clear bottom sterile plates (Greiner). The seeded plates are incubated overnight at 37° C. in 5% CO2.
(§4) Human orexin-A as an agonist is prepared as 1 mM stock solution in MeOH: water (1:1), diluted in HBSS containing 0.1% bovine serum albumin (BSA), NaHCO3: 0.375g/l and 20 mM HEPES for use in the assay at a final concentration of 3 nM.
(§5) Antagonists are prepared as 10 mM stock solution in DMSO, then diluted in 384-well plates using DMSO followed by a transfer of the dilutions into in HBSS containing 0.1% bovine serum albumin (BSA), NaHCO3: 0.375g/l and 20 mM HEPES. On the day of the assay, 50 μl of staining buffer (HBSS containing 1% FCS, 20 mM HEPES, NaHCO3: 0.375g/l, 5 mM probenecid (Sigma) and 3 μM of the fluorescent calcium indicator fluo-4 AM (1 mM stock solution in DMSO, containing 10% pluronic) is added to each well. The 384-well cell-plates are incubated for 50 min at 37° C. in 5% CO2 followed by equilibration at RT for 30-120 min before measurement.
(§6) Within the Fluorescent Imaging Plate Reader (FLIPR, Molecular Devices), antagonists are added to the plate in a volume of 10 μl/well, incubated for 10 min and finally 10 μl/well of agonist is added. Fluorescence is measured for each well at 1 second intervals, and the height of each fluorescence peak is compared to the height of the fluorescence peak induced by 3 nM orexin-A with vehicle in place of antagonist. For each antagonist, the IC50 value (the concentration of compound needed to inhibit 50% of the agonistic response) is determined.

human orexin-2 receptor = target: T2, human orexin-2 receptor (Homo sapiens, UniProt O43614); assay: as above; format: cell-based; conditions: CHO cells expressing human orexin-2 receptor; agonist 3 nM orexin-A; read-out: OX2 IC50
T2 construct: expressed in transfected cells; host or cells: CHO (Chinese hamster ovary) cells under G418 selection
T2 sequence (O43614 1-444): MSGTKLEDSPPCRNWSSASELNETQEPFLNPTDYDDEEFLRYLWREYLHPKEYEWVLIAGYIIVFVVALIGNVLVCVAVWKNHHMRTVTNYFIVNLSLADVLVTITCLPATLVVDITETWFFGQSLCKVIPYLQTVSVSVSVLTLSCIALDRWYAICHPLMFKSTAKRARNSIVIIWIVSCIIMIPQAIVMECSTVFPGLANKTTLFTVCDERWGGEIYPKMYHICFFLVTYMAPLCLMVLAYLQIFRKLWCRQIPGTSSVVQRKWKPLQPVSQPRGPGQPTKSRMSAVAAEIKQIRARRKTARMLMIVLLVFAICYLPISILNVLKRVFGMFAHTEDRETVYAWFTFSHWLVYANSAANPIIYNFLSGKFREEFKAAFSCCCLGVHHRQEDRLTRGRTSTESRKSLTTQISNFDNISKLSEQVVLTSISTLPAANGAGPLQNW
Description: as §1, §2, §3, §4, §5, §6

Structure (SMILES)	IC50 (human orexin-1 receptor) [nM]	IC50 (human orexin-2 receptor) [nM]
COc1cc(OC)nc(N[C@@H]2CCCN(C(=O)c3ccccc3-c3ccc(C)c(C)c3)C2)n1 [Example 2, (R)-[3-(4,6-Dimethoxy-pyrimidin-2-ylamino)-piperidin-1-yl]-(3′,4′-dimethyl-biphenyl-2-yl)-methanone]	25	10
Cc1ccc(-c2ccccc2C(=O)N2CCC[C@@H](Nc3cnc4ccccc4n3)C2)cc1C [Example 6, (R)-(3′,4′-Dimethyl-biphenyl-2-yl)-[3-(quinoxalin-2-ylamino)-piperidin-1-yl]-methanone]	13	11
Cc1ccc(-c2ccccc2C(=O)N2CCC[C@@H](NC(=O)c3cn(C)c4ccccc34)C2)cc1C [Example 41, (R)-1-Methyl-1H-indole-3-carboxylic acid[1-(3′,4′-dimethyl-biphenyl-2-carbonyl)-piperidin-3-yl]-amide]	32	25

The remaining compounds from weak to strong by IC50 (human orexin-1 receptor), led by results:

IC50 (human orexin-1 receptor) [nM]	IC50 (human orexin-2 receptor) [nM]	Structure (SMILES)
58	43	Cc1ccc(-c2ccccc2C(=O)N2CCC[C@@H](Nc3nccc(C(F)(F)F)n3)C2)cc1C [Example 1, (R)-(3′,4′-Dimethyl-biphenyl-2-yl)-[3-(4-trifluoromethyl-pyrimidin-2-ylamino)-piperidin-1-yl]-methanone]
33	15	Cc1cccc(-c2ccccc2C(=O)N2CCC[C@@H](NC(=O)c3nn(C)c4ccccc34)C2)c1 [Example 34, (R)-1-Methyl-1H-indazole-3-carboxylic acid[1-(3′-methyl-biphenyl-2-carbonyl)-piperidin-3-yl]-amide]
